Assay results: patent US8748520B2, “Polycarbonate resin composition containing triazine compound and molded article using the same” (FUJIFILM Corporation, priority 2009, dated 2014)

Assay: Measurement of pKa from absorption spectra
Type: physicochemical
Conditions: in acetonitrile, 70% perchloric acid (solvent: acetic acid) added dropwise; proton adduct at nitrogen atom of triazine ring
Method: <Method for Measuring pKa>
Compound (1) was dissolved in acetonitrile to give an absorbance of 1 and to this solution, 70% perchloric acid (solvent: acetic acid) was added dropwise, thereby varying the pH. At this time, the absorption spectrum of solution was measured and based on the absorbance at λmax, the proportions of a triazine-free form and a proton adduct were calculated at each pH. From the point at which these values became equal, the pKa value was determined. Here, the triazine-free form indicates Compound (1) itself, and the proton adduct indicates a compound resulting from addition of a proton to the nitrogen atom of triazine ring of Compound (1). […] The absorption spectrum was measured using a spectrophotometer, UV-3600 (trade name), manufactured by Shimadzu Corporation, and the pH was measured using a pH meter, HM60G (trade name), manufactured by To a Denpa Kogyo. Incidentally, the absorbance is a value measured at the maximum absorption wavelength of each compound.

pKa, -5:
COC(=O)c1ccc(-c2nc(-c3ccccc3O)nc(-c3ccc(OC)cc3O)n2)cc1 [Compound (104)], COc1ccc(-c2nc(-c3ccc(C(=O)OCC(CCCCC(C)C)CCC(C)C)cc3)nc(-c3ccccc3O)n2)c(O)c1 (stereo not shown) [Compound (114)], CCCCCCCCC(CCCCCC)COC(=O)c1ccc(-c2nc(-c3ccccc3O)nc(-c3ccc(OC)cc3O)n2)cc1 (stereo not shown) [Compound (115)], CCC(C)CCCCCC(CCCC(C)CC)COC(=O)c1ccc(-c2nc(-c3ccccc3O)nc(-c3ccc(OC)cc3O)n2)cc1 (stereo not shown) [Compound (116)], COc1ccc(-c2nc(-c3ccc(C(=O)OCC(CCC(C)CC(C)(C)C)C(C)CC(C)(C)C)cc3)nc(-c3ccccc3O)n2)c(O)c1 (stereo not shown) [Compound (117)], CCCCCCCCCC(CCCCCCC)COC(=O)c1ccc(-c2nc(-c3ccccc3O)nc(-c3ccc(OC)cc3O)n2)cc1 (stereo not shown) [Compound (118)], COc1ccc(-c2nc(-c3ccc(C(=O)OCC(CCC(C)CCCC(C)C)C(C)CCCC(C)C)cc3)nc(-c3ccccc3O)n2)c(O)c1 (stereo not shown) [Compound (119)]
